Legend:
Mouse Hepatocyte = experiment: Metabolic stability in mouse hepatocytes; assay type: in vitro ADME; conditions: mouse cryopreserved hepatocytes, 1 μM
Method: (§1) The aim of this assay is to determine the metabolic stability of the compound in hepatocytes (cryopreserved) of different species. Low hepatocyte stability may result in the formation of unwanted metabolites, high clearance, and therefore is not desirable.
(§2) A 10 mM stock solution of test compound in DMSO was first diluted in DMSO to 3 mM, and then in modified Krebs-Henseleit buffer (Sigma, K3753) to 5 μM. This compound dilution was added to a suspension of pooled cryopreserved hepatocytes (BioreclamationIVT) at 37° C. under gentle shaking.
(§3) Final reaction conditions were: 1 μM of test compound, 0.03% DMSO, 0.5 million viable hepatocytes/mL, and 75 μL incubation volume.
(§4) Testosterone (1 μM) and 7-hydroxycoumarin (1 μM) were used, respectively as phase I and phase II metabolic reaction controls.
(§5) After 0, 10, 20, 45, 90, 120 and 180 min of incubation, the reaction was terminated with 225 μL of MeCN:MeOH (2:1) containing 100 ng/mL of diclofenac as analytical internal standard. Samples were mixed, centrifuged and the supernatant analyzed by LC-MS/MS.
(§6) The instrument responses (ratios of test compound and internal standard peak areas) were referenced to the zero time point samples (considered as 100%) in order to determine the percentage of compound remaining.
(§7) Plots of percentage compound remaining were used to determine the intrinsic clearance in the hepatocyte incubations using the following equations:
(§8) Scaled Clint [L/h/kg]=Clint [μL/min/10^6 cells]*#(10) cells/g liver*60*(1/10^6) Scaled Clint unbound [L/h/kg]=Clint [L/h/kg]/Fu,inc where: fu,inc equals hepatocyte binding, derived from microsomal binding (fu,mic) by following equation: […]

human IRAK-4 = biological target: T1, human IRAK-4 (Homo sapiens, UniProt Q9NWZ3); experiment: Phosphorylation IC50 determination for human IRAK-4 (ADP-Glo Kinase Assay); conditions: human IRAK-4, substrate RIP140, Km ATP; read-out: IRAK4 ADPglo biochemical assay IC50
T1 construct: purchased Carna Biosciences 09 145
T1 sequence (Q9NWZ3 1-460): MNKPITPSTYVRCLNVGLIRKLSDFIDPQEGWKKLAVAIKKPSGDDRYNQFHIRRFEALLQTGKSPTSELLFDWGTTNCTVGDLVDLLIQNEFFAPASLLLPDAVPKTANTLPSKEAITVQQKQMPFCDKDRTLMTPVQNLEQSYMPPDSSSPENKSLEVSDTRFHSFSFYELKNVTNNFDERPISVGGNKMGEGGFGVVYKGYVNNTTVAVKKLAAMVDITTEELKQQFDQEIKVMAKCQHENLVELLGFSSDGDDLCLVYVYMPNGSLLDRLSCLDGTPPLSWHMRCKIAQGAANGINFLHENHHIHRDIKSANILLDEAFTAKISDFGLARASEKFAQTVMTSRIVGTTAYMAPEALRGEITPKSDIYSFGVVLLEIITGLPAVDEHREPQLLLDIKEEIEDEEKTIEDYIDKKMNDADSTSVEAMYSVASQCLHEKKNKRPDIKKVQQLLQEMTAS
Method: The phosphorylation of the substrate RIP140 (SEQ ID1) by IRAK4 at Km ATP was detected with the ADP-Glo Kinase Assay (Promega, Cat #V9103), a luminescent kinase assay which measures the ADP formed from a kinase reaction. (Zegzouti et al. 2009) In a second step the kinase reaction was terminated and all the remaining ATP was depleted. In a final step the ADP was converted into ATP and this newly synthesized ATP was measured by using a luciferase/luciferin reaction with a luminescent reader. The luminescent signal positively correlated with kinase activity, in particular kinase inhibition giving a decrease of the luminescent signal.
For the semi-automated assay, the positive control (100% inhibition) was prepared by diluting 10 mM staurosporine stock mixture (20 μL) in water (3.8 mL) and DMSO (180 μL), thus resulting in a […] staurosporine solution at 1% DMSO (final concentration after further dilution in the kinase reaction).
For the automated assay, no pre-dilution of the 10 mM staurosporine stock was made. 10 mM staurosporine was spotted directly in the assay plate using acoustic dispensing and complemented with DMSO to result in a similar final concentration as mentioned above.
For the semi-automated assay, the negative control (0% inhibition) was prepared by mixing water (3.8 mL) and DMSO (200 μL) resulting in a final concentration of 1% DMSO after further dilution in the kinase reaction. For the automated assay no pre-dilution of DMSO was done. 100% DMSO was spotted directly on the assay plate.
The assay buffer solution was prepared at a concentration corresponding to 5 fold the final (most diluted) assay concentration by mixing a solution of 125 mM TRIS pH 7.5+0.05% Triton X-100+2.5 mM EGTA (5.27 mL) with 1M mgCl2 (72 μL), 1M DTT (57.6 μL), and 200 mM MnCl2 (360 μL).
For example, for the semi-automated method, the enzyme-substrate mixture was prepared by mixing water (3999 μL), assay buffer solution (1380 μL), 1 mM RIP140 (138 μL—SEQ ID1), and 200 ng/mL IRAK 4 (3.45 μL Carna Biosciences, 09 145).
For semi-automated method, the ATP mixture was prepared at a concentration corresponding to 2.5 fold the final (most diluted) assay concentration of the semi-automated method and 1.5 fold the final (most diluted) assay concentration of the automated method. For example, for the semi-automated method, the ATP mixture was prepared by mixing water (4126 μL), assay buffer solution (1380 μL), and 10 mM ATP (13.80 μL).
The assay are performed either in a semi-automated or fully automated manner. The assay volume and the incubation time of the ADP detection were different accordingly the method used.
The compounds were prepared as a serial dilution of 10 point dose responses with 1/5 dilution steps in 100% DMSO starting from 2 mM highest concentration, diluted 1/20 in water. 1 μL was transferred dry to the assay plates.
On each assay plate 32 wells of each control (positive & negative) were added, followed by 2 μL enzyme-substrate mixture.
The reaction was started by adding 2 μL diluted ATP (final concentration Km ATP) on the assay plates. Plates were centrifuged for a few seconds at 1000 rpm followed by an incubation at r.t. for 120 min.
The reactions were stopped and the unconsumed ATP was depleted by adding 5 μL ADP-glo Reagent (Promega, Cat #V9103) to the reaction. The plates were quickly centrifuged at 1000 rpm and incubated at r.t. for 40 min corresponding to full ATP depletion.
The ADP was converted back to ATP and luciferase and luciferin were introduced to detect ATP by adding 10 μL kinase detection reagent (Promega, Cat #V9103) to the reaction. The plates were centrifuged for a few seconds at 1000 rpm and incubated at r.t. for a further 30 min.
Luminescent read out was performed on an Envision luminescent reader (Perkin Elmer).
For the automated assay, the compounds were prepared as a serial dilution of 10 point dose responses with 1/5 dilution steps in 100% DMSO starting from 2 mM highest concentration. […]

Human Hepatocyte = experiment: Metabolic stability in human hepatocytes; assay type: in vitro ADME; conditions: human cryopreserved hepatocytes, 1 μM
Method: as §1, §2, §3, §4, §5, §6, §7, §8

SMILES | Mouse Hepatocyte stability (Perc. remaining at 90 min) (Mouse Hepatocyte) | IC50 (human IRAK-4) | Human Hepatocyte stability (Perc. remaining at 90 min) (Human Hepatocyte)
CC(F)(F)c1cccc(C(=O)Nc2cn3cc(C4COCCO4)nc3cc2C(N)=O)n1 (stereo not drawn) [Compound 13, 6-(6-(1,1-difluoroethyl)picolinamido)-2-(1,4-dioxan-2-yl)imidazo[1,2-a]pyridine-7-carboxamide] | 72.8 Perc. | 0.1 to 5 nM | 93.85 Perc.
CNC(=O)c1cc2nc(C3COCCO3)cn2cc1NC(=O)c1cccc(C(C)(F)F)n1 (stereo not drawn) [Compound 14, 6-(6-(1,1-difluoroethyl)picolinamido)-2-(1,4-dioxan-2-yl)-N-methylimidazo[1,2-a]pyridine-7-carboxamide] | 67.65 Perc. | 0.1 to 5 nM | 100.05 Perc.
